Patent US20070117839A1, “Two cyclic cinnamide compound” (Eisai R&D Management Co., Ltd., priority 2005, published 2007)

System: Aβ 42 Production
Test: Quantification of Aβ peptide in culture of neurons from rat fetus brain (Aβ ELISA)
Format: cell-based
Conditions: Neuron, 72 h; rat primary neuronal culture (embryonic day 18 Wistar rat cerebral cortex), cultured three days after addition of the compound, Aβx-42 ELISA of the medium; read-out: Activity for reducing Aβ 42 Production IC50
Experimental: Quantification of Aβ Peptide in Culture of Neurons from Rat Fetus Brain
(1) Rat Primary Neuronal Culture
Primary neuronal cultures were prepared from the cerebral cortex of embryonic day 18 Wistar rats (Charles River Japan, Yokohama, Japan). Specifically, the embryos were aseptically removed from pregnant rats under ether anesthesia. The brain was isolated from the embryo and immersed in an ice-cold L-15 medium (Invitrogen Corp. Cat #11415-064, Carlsbad, Calif., USA, or SIGMA L1518, for example). The cerebral cortex was collected from the isolated brain under a stereoscopic microscope. The cerebral cortex fragments collected were enzymatically treated in an enzyme solution containing 0.25% trypsin (Invitrogen Corp. Cat #15050-065, Carlsbad, Calif., USA) and 0.01% DNase (Sigma D5025, St. Louis, Mo., USA) at 37° C. for 30 minutes to disperse the cells. Here, the enzymatic reaction was stopped by adding inactivated horse serum to the solution. The enzymatically treated solution was centrifuged at 1,500 rpm for five minutes to remove the supernatant. 5 to 10 mL of a medium was added to the resulting cell mass. Neurobasal medium (Invitrogen Corp. Cat #21103-049, Carlsbad, Calif., USA) supplemented with 2% B27 supplement (Invitrogen Corp. Cat #17504-044, Carlsbad, Calif., USA), 25 μM 2-mercaptoethanol (2-ME, WAKO Cat #139-06861, Osaka, Japan), 0.5 mM L-glutamine (Invitrogen Corp. Cat #25030-081, Carlsbad, Calif., USA), and Antibiotics-Antimycotics (Invitrogen Corp. Cat #15240-062, Carlsbad, Calif., USA) was used as the medium (Neurobasal/B27/2-ME). However, the above Neurobasal medium not supplemented with 2-ME (Neurobasal/B27) was used for the assay. The cells were redispersed by mild pipetting of the cell mass to which the medium was added. The cell dispersion was filtered through a 40-μm nylon mesh (Cell Strainer, Cat #35-2340, Becton Dickinson Labware, Franklin Lakes, N.J., USA) to remove the remaining cell mass, and thus a neuronal cell suspension was obtained. The neuronal cell suspension was diluted with the medium and then plated in a volume of 100 μl/well at an initial cell density of 5×10^5 cells/cm^2 in a 96-well polystyrene culture plate pre-coated with poly-L or D-lysine (Falcon Cat #35-3075, Becton Dickinson Labware, Franklin Lakes, N.J., USA coated with poly-L-lysine using the method shown below, or BIOCOAT™ cell environments Poly-D-lysine cell ware 96-well plate, Cat #35-6461, Becton Dickinson Labware, Franklin Lakes, N.J., USA). Poly-L-lysine coating was carried out as follows. 100 μg/ml of a poly-L-lysine (SIGMA P2636, St. Louis, Mo., USA) solution was aseptically prepared with a 0.15 M borate buffer (pH 8.5). 100 μl/well of the solution was added to the 96-well polystyrene culture plate and incubated at room temperature for one or more hours or at 4° C. overnight or longer. The coated 96-well polystyrene culture plate was washed with sterile water four or more times, and then dried or rinsed with, for example, sterile PBS or medium, and used for cell plating. The plated cells were cultured in the culture plate at 37° C. in 5% CO2-95% air for one day. Then, the total amount of the medium was replaced with a fresh Neurobasal/B27/2-ME medium, and then the cells were cultured for further three days.
The drug was added to the culture plate on Day 4 of culture as follows. The total amount of the medium was removed from the wells, and 180 μl/well of Neurobasal medium not containing 2-ME and containing 2% B-27 (Neurobasal/B27) was added thereto. A solution of the test compound in dimethyl sulfoxide (hereinafter abbreviated as DMSO) was diluted with Neurobasal/B27 at 10-fold of the final concentration. 20 μl/well of the dilution was added to and sufficiently mixed with the medium. The final DMSO concentration was 1% or less. Only DMSO was added to the control group.
The cells were cultured for three days after addition of the compound, and the total amount of the medium was collected. […]

`COc1cc(/C=C2\CC[C@H]3CCC[C@@H](c4ccc(F)c(F)c4)N3C2=O)ccc1-n1cnc(C)c1` [Example 90, (6S,9aR)-6-(3,4-difluorophenyl)-3-{1-[3-methoxy-4-(4-methyl-1H-imidazol-1-yl)phenyl]-(E)-methylidene}octahydroquinolizin-4-one] was tested. Which IC50 did it give?
The IC50 was 39 nM.

Which IC50 does the source give for `COc1cc(/C=C2\CC[C@@H]3CCC[C@H](c4ccccc4F)N3C2=O)ccc1-n1cnc(C)c1` [Example 44, (E)-(6R,9aS)-6-(2-fluorophenyl)-3-[3-methoxy-4-(4-methyl-1H-imidazol-1-yl)benzylidene]octahydroquinolizin-4-one] here?
The IC50 was 94 nM.

For `COc1cc(/C=C2\CC[C@H]3CC[C@@H](c4cc(F)c(F)cc4F)N3C2=O)ccc1-n1cnc(C)c1` [Example 57, (E)-(3S,8aS)-3-(2,4,5-trifluorophenyl)-6-[3-methoxy-4-(4-methyl-1H-imidazol-1-yl)benzylidene]hexahydroindolizin-5-one], which IC50 is on record?
The IC50 was 62 nM.

Which IC50 does the source give for `COc1cc(/C=C2\CC[C@H]3COC[C@@H](c4ccc(F)c(F)c4)N3C2=O)ccc1-n1cnc(C)c1` [Example 95, (4R,9aS)-4-(3,4-difluorophenyl)-7-{1-[3-methoxy-4-(4-methyl-1H-imidazol-1-yl)phenyl]-(E)-methylidene}hexahydropyrido[2,1-c][1,4]oxazin-6-one] here?
Its IC50 is 87 nM.

Which IC50 does the source give for `COc1cc(/C=C2\CC[C@@H]3C[C@H](O)C[C@@H](c4cc(F)c(F)c(F)c4)N3C2=O)ccc1-n1cnc(C)c1` [Example 15, (E)-(6S,8S,9aR)-6-(3,4,5-trifluorophenyl)-8-hydroxy-3-[3-methoxy-4-(4-methyl-1H-imidazol-1-yl)benzylidene]octahydroquinolizin-4-one] here?
The IC50 was 80 nM.

How did the IC50 turn out when `COc1cc(/C=C2\CC[C@@H]3C[C@@H](O)C[C@@H](c4cc(F)c(F)c(F)c4)N3C2=O)ccc1-n1cnc(C)c1` [Example 17, (E)-(6S,8R,9aR)-6-(3,4,5-trifluorophenyl)-8-hydroxy-3-[3-methoxy-4-(4-methyl-1H-imidazol-1-yl)benzylidene]octahydroquinolizin-4-one] was run?
The IC50 was 68 nM.

With `COc1cc(/C=C2\CC[C@@H]3C[C@H](O)C[C@@H](c4ccc(F)cc4)N3C2=O)ccc1-n1cnc(C)c1` [Example 11, (E)-(6S,8S,9aR)-6-(4-fluorophenyl)-8-hydroxy-3-[3-methoxy-4-(4-methyl-1H-imidazol-1-yl)benzylidene]octahydroquinolizin-4-one] as the compound, how does the IC50 read?
Its IC50 is 97 nM.
